According to patent publication US20240109868A1, “EP300/CBP MODULATOR, PREPARATION METHOD THEREFOR AND USE THEREOF” (Miracure Biotechnology Limited, priority 2022, published 2024):

How the values were obtained:
vCap Cell = experiment: vCap cell growth inhibition, CellTiter-Glo, 72 h; type: cell-based; details: Homo sapiens, VCaP, 72 h, vCap cells, 72 h culture
Experimental: (§1) 22RV1 or vCap cells were cultured in RPMI-1640 medium (10% fetal bovine serum and 100 units (per mL) of penicillin/streptomycin dual antibody were added to RPMI-1640) in a 37° C., 5% CO2 cell incubator. Cells at the logarithmic growth phase were inoculated onto a 96-well cell culture plate at 5×10^3 cells/100 μL/well and cultured overnight. Solutions of different concentrations of an active compound in DMSO were added, with the final concentration being 0.5% DMSO. The positive control was 1% TweeN2O, and the negative control was 0.5% DMSO. After 72 h of culture, an equal volume of CellTiter-Glo was added to each well, and the mixtures were mixed homogeneously by shaking for 2 min. The plate was let stand at room temperature for 10 min, and fluorescence signal values were read using a microplate reader. Data were analyzed using Prism 7.0 and graphs were generated. The values are shown as mean f SEM (N=2). […] The X-axis represents compound concentration (μM), and the Y-axis represents % inhibition.

22Rv1 Cell = experiment: 22RV1 cell growth inhibition, CellTiter-Glo, 72 h; type: cell-based; details: Homo sapiens, 22Rv1, 72 h, 22RV1 cells, 72 h culture
Experimental: as §1

Row | Structure (SMILES) | IC50 (vCap Cell) [µM] | IC50 (22Rv1 Cell) [µM]
1 | CC(=O)N1Cc2cc(N3CCOCC3)cc(N3CCCc4cc(-c5cnn(C)c5)c(C(F)F)cc43)c2C1 [Compound M001001] | > 1 | > 1
2 | CC(=O)N1Cc2cc(N3CCNCC3)cc(N3CCCc4cc(-c5cnn(C)c5)c(C(F)F)cc43)c2C1 [Compound M001002] | > 1 | > 1
3 | CC(=O)N1Cc2cc(N3CCN(C)CC3)cc(N3CCCc4cc(-c5cnn(C)c5)c(C(F)F)cc43)c2C1 [Compound M001003] | > 1 | > 1
4 | CC(=O)N1Cc2cc(N3CCSCC3)cc(N3CCCc4cc(-c5cnn(C)c5)c(C(F)F)cc43)c2C1 [Compound M001004] | > 1 | > 1
5 | CNC(=O)N1CCc2cc(N3CCOCC3)cc(N3CCCc4cc(-c5cnn(C)c5)c(C(F)F)cc43)c2C1 [Compound M001014, 8-(7-(difluoromethyl)-6-(1-methyl-1H-pyrazol-4-yl)-3,4-dihydroquinolin-1(2H)-yl)-N-methyl-6-morpholine-3,4-dihydroisoquinoline-2(1H)-carboxamide] | > 1 | > 1
6 | CNC(=O)N1CCc2cc(CN3CCCC(C(=O)O)C3)cc(N3CCCc4cc(-c5cnn(C)c5)c(C(F)F)cc43)c2C1 (stereo not shown) [Compound M001015] | > 1 | > 1
7 | CNC(=O)N1CCc2cc(N3CCS(=O)(=O)CC3)cc(N3CCCc4cc(-c5cnn(C)c5)c(C(F)F)cc43)c2C1 [Compound M001021] | > 1 | > 1
8 | CC(=O)N1Cc2cc(C3CCC(=O)N(CC(C)O)C3)cc(N3CCCc4cc(-c5cnn(C)c5)c(C(F)F)cc43)c2C1 (stereo not shown) [Compound M001226] |  | > 1
9 | CC(=O)N1Cc2cc(C3CCC(=O)N(C)C3)cc(N3CCCc4cc(-c5cn(C)nc5C(=O)N(C)C)c(C(F)F)cc43)c2C1 (stereo not shown) [Compound M001227] |  | > 1
10 | CNC(=O)N1CCc2cc(C3CCC(=O)N(C)C3)cc(Nc3cc(C(F)F)c(-c4cnn(C)c4)cc3F)c2C1 (stereo not shown) [Compound M001232, 8-((5-(difluoromethyl)-2-fluoro-4-(1-methyl-1H-pyrazol-4-yl)phenyl)amino)-N-methyl-6-(1-methyl-6-oxopiperidin-3-yl)-3,4-dihydroisoquinoline-2(1H)-carboxamide] |  | > 1
11 | CC(=O)N1Cc2cc(C3CCC(=O)N(C)C3)cc(Nc3cc(C(F)F)c(-c4cnn(C)c4)cc3F)c2C1 (stereo not shown) [Compound M001233] |  | > 1
12 | CC(=O)N1Cc2cc(C3COC(=O)N(C)C3)cc(N3CCCc4cc(-c5cnn(C)c5)c(C(F)F)cc43)c2C1 (stereo not shown) [Compound M001238] |  | > 1
13 | CNC(=O)N1CCc2cc(C3CCN(CC(C)O)C(=O)C3)cc(Nc3cc(C(F)F)c(-c4cnn(C)c4)cc3F)c2C1 (stereo not shown) [Compound M001240] |  | > 1
14 | CC(=O)N1Cc2cc(C3CCN(CC(C)O)C(=O)C3)cc(Nc3cc(C(F)F)c(-c4cnn(C)c4)cc3F)c2C1 (stereo not shown) [Compound M001241] |  | > 1
15 | CC(=O)N1Cc2cc(C3CCN(CCO)C(=O)C3)cc(N3CCCc4cc(-c5cnn(C)c5)c(C(F)F)cc43)c2C1 (stereo not shown) [Compound M001247] |  | > 1
16 | CC(=O)N1Cc2cc(C3CCN(CCF)C(=O)C3)cc(N3CCCc4cc(-c5cnn(C)c5)c(C(F)F)cc43)c2C1 (stereo not shown) [Compound M001250] |  | > 1
17 | CC(=O)N1Cc2cc(C3CCN(CC(F)F)C(=O)C3)cc(N3CCCc4cc(-c5cnn(C)c5)c(C(F)F)cc43)c2C1 (stereo not shown) [Compound M001254] |  | < 1
18 | CC(=O)N1Cc2cc(C3CCC(=O)N(CCF)C3)cc(N3CCCc4cc(-c5cnn(C)c5)c(C(F)F)cc43)c2C1 (stereo not shown) [Compound M001257] |  | > 1
19 | CC(=O)N1Cc2cc(C3CCCNC3=O)cc(N3CCCc4cc(-c5cnn(C)c5)c(C(F)F)cc43)c2C1 (stereo not shown) [Compound M001258] |  | > 1
20 | CCN1CCN(c2cc3c(c(N4CCCc5cc(-c6cnn(C)c6)c(C(F)F)cc54)c2)CN(C(C)=O)C3)CC1=O [Compound M001262] |  | > 1
21 | CC(=O)N1Cc2cc(C3CCN(O)CC3)cc(N3CCCc4cc(-c5cnn(C)c5)c(C(F)F)cc43)c2C1 [Compound M001277] |  | > 1
22 | CNC(=O)N1CCc2cc(C3CCN(C4CCC(=O)NC4=O)C(=O)C3)cc(N3CCCc4cc(-c5cnn(C)c5)c(C(F)F)cc43)c2C1 (stereo not shown) [Compound M001287] |  | > 1
23 | CNC(=O)N1CCc2cc(-c3ccn(C4CCC(=O)NC4=O)c(=O)c3)cc(N3CCCc4cc(-c5cnn(C)c5)c(C(F)F)cc43)c2C1 (stereo not shown) [Compound M001300, 8-(7-(difluoromethyl)-6-(1-methyl-1H-pyrazol-4-yl)-3,4-dihydroquinolin-1(2H)-yl)-6-(1-(2,6-dioxopiperidin-3-yl)-2-oxo-1,2-dihydropyridin-4-yl)-N-methyl-3,4-dihydroisoquinoline-2(1H)-carboxamide] |  | > 1

The remaining lines, values ahead:

Row | IC50 (vCap Cell) [µM] | IC50 (22Rv1 Cell) [µM] | Structure (SMILES)
24 | > 1 | > 1 | CC(=O)N1Cc2cc(C3CCC([S@](C)(=N)=O)CC3)cc(N3CCCc4cc(-c5cnn(C)c5)c(C(F)F)cc43)c2C1 (stereo in doubt) [Compound M001330]
25 | > 1 | > 1 | CNC(=O)N1CCc2cc(CN3CCC(C(=O)O)CC3)cc(N3CCCc4cc(-c5cnn(C)c5)c(C(F)F)cc43)c2C1 [Compound M001016]
26 | > 1 | > 1 | CNC(=O)N1CCc2cc(C3CCNCC3)cc(N3CCCc4cc(-c5cnn(C)c5)c(C(F)F)cc43)c2C1 [Compound M001017]
27 | > 1 | > 1 | CNC(=O)N1CCc2cc(C3CCN(C)CC3)cc(N3CCCc4cc(-c5cnn(C)c5)c(C(F)F)cc43)c2C1 [Compound M001018]
28 | > 1 | > 1 | CNC(=O)N1CCc2cc(N3CCSCC3)cc(N3CCCc4cc(-c5cnn(C)c5)c(C(F)F)cc43)c2C1 [Compound M001019]
29 |  | > 1 | CNC(=O)N1CCc2cc(C3CCC(=O)N(CC(C)O)C3)cc(N3CCCc4cc(-c5cnn(C)c5)c(C(F)F)cc43)c2C1 (stereo not shown) [Compound M001223]
30 |  | > 1 | CNC(=O)N1CCc2cc(C3CCN(CCO)C(=O)C3)cc(N3CCCc4cc(-c5cnn(C)c5)c(C(F)F)cc43)c2C1 (stereo not shown) [Compound M001248]
31 |  | > 1 | CNC(=O)N1CCc2cc(C3CCN(CCF)C(=O)C3)cc(N3CCCc4cc(-c5cnn(C)c5)c(C(F)F)cc43)c2C1 (stereo not shown) [Compound M001251]
32 |  | < 1 | CNC(=O)N1CCc2cc(C3CCN(CC(F)F)C(=O)C3)cc(N3CCCc4cc(-c5cnn(C)c5)c(C(F)F)cc43)c2C1 (stereo not shown) [Compound M001255]
33 |  | > 1 | CNC(=O)N1CCc2cc(C3CCC(=O)N(CCF)C3)cc(N3CCCc4cc(-c5cnn(C)c5)c(C(F)F)cc43)c2C1 (stereo not shown) [Compound M001256]
34 |  | > 1 | COC(=O)N1CCc2cc(C3CCOCC3)cc(N3CCCc4cc(-c5cnn(C)c5)c(C(F)F)cc43)c2C1 [Compound M001270]
35 |  | > 1 | COC(=O)N1CCc2cc(C3CCC(OC)CC3)cc(N3CCCc4cc(-c5cnn(C)c5)c(C(F)F)cc43)c2C1 (stereo not shown) [Compound M001271]
36 |  | > 1 | CNC(=O)N1CCc2cc(C3CCN(O)CC3)cc(N3CCCc4cc(-c5cnn(C)c5)c(C(F)F)cc43)c2C1 [Compound M001276, 8-[7-(difluoromethyl)-6-(1-methylpyrazol-4-yl)-3,4-dihydro-2H-quinolin-1-yl]-6-(1-hydroxypiperidin-4-yl)-N-methyl-3,4-dihydro-1H-isoquinoline-2-carboxamide]
37 |  | > 1 | CNC1CCC(c2cc3c(c(N4CCCc5cc(-c6cnn(C)c6)c(C(F)F)cc54)c2)CN(C(C)=O)C3)CC1 (stereo not shown) [Compound M001302]
38 |  | > 1 | CC(=O)N1Cc2cc([C@H]3CC[C@@H](N(C)C)CC3)cc(N3CCCc4cc(-c5cnn(C)c5)c(C(F)F)cc43)c2C1 [Compound M001303]
39 |  | < 1 | CC(=O)N1Cc2cc([C@H]3CC[C@@H](NS(C)(=O)=O)CC3)cc(N3CCCc4cc(-c5cnn(C)c5)c(C(F)F)cc43)c2C1 [Compound M001305]
40 |  | > 1 | CNC(=O)N1CCc2cc(C3CCN(S(C)(=O)=O)CC3)cc(N3CCCc4cc(-c5cnn(C)c5)c(C(F)F)cc43)c2C1 [Compound M001306]
41 |  | < 1 | CC(=O)N[C@H]1CC[C@@H](c2cc3c(c(N4CCCc5cc(-c6cnn(C)c6)c(C(F)F)cc54)c2)CN(C(C)=O)C3)CC1 [Compound M001308]
42 |  | < 1 | CC(=O)N1Cc2cc([C@H]3CC[C@H](NS(C)(=O)=O)CC3)cc(N3CCCc4cc(-c5cnn(C)c5)c(C(F)F)cc43)c2C1 [Compound M001309]
43 |  | > 1 | CN[C@H]1CC[C@H](c2cc3c(c(N4CCCc5cc(-c6cnn(C)c6)c(C(F)F)cc54)c2)CN(C(C)=O)C3)CC1 [Compound M001311]
44 |  | > 1 | CC(=O)N1Cc2cc([C@H]3CC[C@H](N(C)C)CC3)cc(N3CCCc4cc(-c5cnn(C)c5)c(C(F)F)cc43)c2C1 [Compound M001312]
45 |  | > 1 | CNC(=O)N1CCc2cc(C3CCC(NS(C)(=O)=O)CC3)cc(N3CCCc4cc(-c5cnn(C)c5)c(C(F)F)cc43)c2C1 (stereo not shown) [Compound M001314]
46 |  | > 1 | CNC(=O)N1CCc2cc([C@H]3CC[C@@H](NC(C)=O)CC3)cc(N3CCCc4cc(-c5cnn(C)c5)c(C(F)F)cc43)c2C1 [Compound M001316]
47 |  | > 1 | CNC(=O)N1CCc2cc([C@H]3CC[C@H](NC(C)=O)CC3)cc(N3CCCc4cc(-c5cnn(C)c5)c(C(F)F)cc43)c2C1 [Compound M001317]
48 |  | > 1 | CNC(=O)N1CCc2cc([C@H]3CC[C@@H](N)CC3)cc(N3CCCc4cc(-c5cnn(C)c5)c(C(F)F)cc43)c2C1 [Compound M001318]
49 |  | > 1 | CNC(=O)N1CCc2cc([C@H]3CC[C@H](N)CC3)cc(N3CCCc4cc(-c5cnn(C)c5)c(C(F)F)cc43)c2C1 [Compound M001319]
